Measured values as given in US20230054194A1, “Methods of Treating Cancer” (ARIAGEN, INC., priority 2018, published 2023).

Key:
CT26 = assay: CT-26 subcutaneous syngeneic colon cancer mouse model (Study 4), tumor growth inhibition; assay type: in vivo, mouse (BALB/C); conditions: for TGI(%) / Tumor size (Mean ± SEM): CT-26 model, i.p., ARI compounds 160 mg/kg QD × 15 doses, Anti-PD-1 10 BIW × 5 doses, study end day Day 23
Experimental: (§1) In this example, the in vivo anti-tumor efficacy of ARI-001, ARI-002, ARI-003, and ARI-143 and their combinations with an anti-PD-1 antibody was evaluated using a panel of twelve subcutaneous syngeneic mouse tumor models.
(§2) Eleven subcutaneous syngeneic mouse tumor models were generated by innoculating female BALB/C or C57BL/6 mice with cancer cells at their right lower or right front flank followed by randomization as detailed in Table 4 below.
(§3) A solution of a rat monoclonal anti-mouse PD-1 antibody (isotype IgG2a, κ) at a concentration of 6.61 mg/ml was obtained from BioXcell (InVivoMAb anti-mouse PD-1 (CD279), Clone RMP1-14, Cat #BE0146)) and store at 4° C. The antibody solution was diluted with PBS to obtain a 1 mg/ml dosing solution.
(§4) ARI-001, ARI-002, and ARI-003 powder was stored at −20° C. The powder of each compound was dissolved in DMSO to obtain dosing solutions at 106.7, 80, and 53.33 mg/ml for administration to mice at 160, 120, and 80 mg/kg, respectively. ARI-143 was similarly prepared.
(§5) Twelve studies using the twelve subcutaneous syngeneic mouse tumor models were performed. In each study, 80 mice were enrolled and randomly allocated to eight different study groups, with 10 mice in each study group. The mean tumor size at randomization was approximately 80-120 mm^3 (around 100 mm^3). Randomization was performed based on “Matched distribution” randomization method (StudyDirector™ software, version 3.1.399.19). […] All the drugs and vehicle controls were injected to the mice intraperitoneally.
(§6) After tumor cell inoculation, the animals were checked daily for morbidity and mortality. At the time of routine monitoring, the animals were checked for any effects of tumor growth and treatments on behavior such as mobility, food and water consumption, body weight gain/loss (body weights were measured twice or three times per week after randomization), and any other abnormalities. Mortality and observed clinical signs were recorded for individual animals. Tumor volumes were measured twice or three times weekly after randomization in two dimensions using a caliper, and the volume was expressed in mm^3 using the formula: […]
(§7) where V is tumor volume, L is tumor length (the longest tumor dimension) and W is tumor width (the longest tumor dimension perpendicular to L).
(§8) The study was terminated when the mean tumor volume (MTV) in the vehicle group reached a value of 2,000 mm^3. Tumor growth inhibition (TGI) is an indication of antitumor activity, and expressed as: […]
(§9) where T and C are the MTV (or weight) of the treated and control groups, respectively, on a given day. Statistical analysis of the difference in MTV among the groups was conducted using the data collected on the day when the MTV of the vehicle group reached the humane endpoints, so that TGI could be derived for all or most mice enrolled in the study.
(§10) Statistical analysis of differences in MTV among the groups was conducted by Independent-Samples T Test using the data collected. All data were analyzed with SPSS (Statistical Product and Service Solutions) version 18.0 (IBM, Armonk, N.Y., U.S.). P-values were rounded to three decimal places, with the exception that raw P-values less than 0.001 were stated as P<0.001. All tests were two-sided. P<0.05 was considered to be statistically significant.
FIG. 63 is a graph showing the mean tumor volume on different study days in the study groups as indicated according to Study 4 (CT-26). The study end day was Day 23.

EMT-6 = EMT-6 subcutaneous syngeneic breast cancer mouse model (Study 2 and Study 12), tumor growth inhibition; assay type: in vivo, mouse (BALB/C); conditions: for TGI(%) / Tumor size (Mean ± SEM): EMT-6 model (Study 2), i.p., ARI-001 160/120 mg/kg QD × 15/6 doses, ARI-002 and ARI-003 160 mg/kg QD × 21 doses, Anti-PD-1 10 BIW × 6 doses, study end day Day 27; for anti-tumor potency of anti-PD-1 antibody combined with the compound, compared to the antibody alone or the vehicle / anti-tumor potency of the compound combined with anti-PD-1 antibody, compared to being used alone: EMT-6 syngeneic breast cancer model
Experimental: as §1, §2, §3, §4, §5, §6, §7, §8, §9, §10
FIG. 61 is a graph showing the mean tumor volume on different study days in the study groups as indicated according to Study 2 (EMT-6). The study end day was Day 27.

MC38 = MC38 subcutaneous syngeneic colon cancer mouse model (Study 1), tumor growth inhibition; assay type: in vivo, mouse (C57BL/6); conditions: for TGI(%) / Tumor size (Mean ± SEM): MC38 model, i.p., ARI compounds 160 mg/kg QD × 17 doses, Anti-PD-1 10 BIW × 5 doses, study end day Day 26
Experimental: as §1, §2, §3, §4, §5, §6, §7, §8, §9, §10
FIG. 60 is a graph showing the mean tumor volume on different study days in the study groups as indicated according to Study 1 (MC38). The study end day was Day 26.

LL/2 = LL/2 subcutaneous syngeneic lung cancer mouse model (Study 6), tumor growth inhibition; assay type: in vivo, mouse (C57BL/6); conditions: for Tumor size / TGI(%): LL/2 model, study end day Day 32; for Tumor size: Mean ± SEM, in mm³; for anti-tumor potency of anti-PD-1 antibody combined with the compound, compared to the antibody alone or the vehicle: LL/2 syngeneic lung cancer model
Experimental: as §1, §2, §3, §4, §5, §6, §7, §8, §9, §10
FIG. 65 is a graph showing the mean tumor volume on different study days in the study groups as indicated according to Study 6 (LL/2). The study end day was Day 32.

Renca = Renca subcutaneous syngeneic kidney cancer mouse model (Study 8), tumor growth inhibition; assay type: in vivo, mouse (BALB/C); conditions: for Tumor size / TGI(%): Renca model, study end day Day 28; for Tumor size: Mean ± SEM, in mm³; for anti-tumor potency of anti-PD-1 antibody combined with the compound, compared to the antibody alone: Renca syngeneic kidney cancer model
Experimental: as §1, §2, §3, §4, §5, §6, §7, §8, §9, §10
FIG. 67 is a graph showing the mean tumor volume on different study days in the study groups as indicated according to Study 8 (Renca). The study end day was Day 28.

A20 = A20 subcutaneous syngeneic lymphoma mouse model (Study 5), tumor growth inhibition; assay type: in vivo, mouse (BALB/C); conditions: for TGI(%) / Tumor size (Mean ± SEM): A20 model, i.p., ARI compounds 160 mg/kg QD × 14 doses, Anti-PD-1 10 BIW × 4 doses, study end day Day 26
Experimental: as §1, §2, §3, §4, §5, §6, §7, §8, §9, §10
FIG. 64 is a graph showing the mean tumor volume on different study days in the study groups as indicated according to Study 5 (A20). The study end day was Day 26.

Hepa1-6 = Hepa1-6 subcutaneous syngeneic liver cancer mouse model (Study 9), tumor growth inhibition; assay type: in vivo, mouse (C57BL/6); conditions: for Tumor size / TGI(%): Hepa1-6 model, study end day Day 26; for Tumor size: Mean ± SEM, in mm³
Experimental: as §1, §2, §3, §4, §5, §6, §7, §8, §9, §10
FIG. 68 is a graph showing the mean tumor volume on different study days in the study groups as indicated according to Study 9 (Hepal-6). The study end day was Day 26.

Pan02 = Pan02 subcutaneous syngeneic pancreatic cancer mouse model (Study 3), tumor growth inhibition; assay type: in vivo, mouse (C57BL/6); conditions: for TGI(%) / Tumor size (Mean ± SEM): Pan02 model, i.p., ARI compounds 160 mg/kg QD × 28 doses, Anti-PD-1 10 BIW × 8 doses, study end day Day 32; for anti-tumor potency of anti-PD-1 antibody combined with the compound, compared to the antibody alone: Pan02 syngeneic pancreatic cancer model
Experimental: as §1, §2, §3, §4, §5, §6, §7, §8, §9, §10
FIG. 62 is a graph showing the mean tumor volume on different study days in the study groups as indicated according to Study 3 (Pan02). The study end day was Day 32.

[1] = MC38 syngeneic colon cancer model

COC(=O)c1csc(C(=O)c2c[nH]c3ccccc23)n1 [ARI-001]
TGI(%) (CT26): 56% | Tumor size (Mean ± SEM) (CT26): 1015.32 ± 114.50 mm^3 | TGI(%) (EMT-6): 53% | Tumor size (Mean ± SEM) (EMT-6): 871.63 ± 142.67 mm^3 | anti-tumor potency of anti-PD-1 antibody combined with the compound, compared to the antibody alone or the vehicle (EMT-6): statistically significant increase | anti-tumor potency of the compound combined with anti-PD-1 antibody, compared to being used alone (EMT-6): statistically significant increase | TGI(%) (MC38): 37% | Tumor size (Mean ± SEM) (MC38): 1624.33 ± 148.56 mm^3 | anti-tumor potency of anti-PD-1 antibody combined with the compound, compared to the antibody alone or the vehicle (MC38; [1]): statistically significant increase | anti-tumor potency of the compound combined with anti-PD-1 antibody, compared to being used alone (MC38; [1]): statistically significant increase | Tumor size (LL/2): 881.1 ± 93.59 | TGI(%) (LL/2): 60% | anti-tumor potency of anti-PD-1 antibody combined with the compound, compared to the antibody alone or the vehicle (LL/2): statistically significant increase | Tumor size (Renca): 1367.52 ± 118.53 | TGI(%) (Renca): 36% | anti-tumor potency of anti-PD-1 antibody combined with the compound, compared to the antibody alone (Renca): statistically significant increase | TGI(%) (A20): 55% | Tumor size (Mean ± SEM) (A20): 1190.08 ± 205.09 mm^3 | Tumor size (Hepa1-6): 1174.25 ± 229.74 | TGI(%) (Hepa1-6): 27% | anti-tumor potency of the compound combined with anti-PD-1 antibody, compared to being used alone (Hepa1-6; Hepa1-6 syngeneic liver cancer model): statistically significant increase | TGI(%) (Pan02): 60% | Tumor size (Mean ± SEM) (Pan02): 357.19 ± 232.32 mm^3 | anti-tumor potency of anti-PD-1 antibody combined with the compound, compared to the antibody alone (Pan02): statistically significant increase

CCC(=O)c1csc(C(=O)c2c[nH]c3ccccc23)n1 [ARI-002]
TGI(%) (CT26): 51% | Tumor size (Mean ± SEM) (CT26): 1112.29 ± 124.36 mm^3 | anti-tumor potency of anti-PD-1 antibody combined with the compound, compared to the antibody alone (CT26; CT-26 syngeneic colon cancer model): statistically significant increase | TGI(%) (EMT-6): 55% | Tumor size (Mean ± SEM) (EMT-6): 842.08 ± 135.38 mm^3 | anti-tumor potency of anti-PD-1 antibody combined with the compound, compared to the antibody alone or the vehicle (EMT-6): statistically significant increase | anti-tumor potency of the compound combined with anti-PD-1 antibody, compared to being used alone (EMT-6): statistically significant increase | TGI(%) (MC38): 45% | Tumor size (Mean ± SEM) (MC38): 1419.94 ± 141.48 mm^3 | anti-tumor potency of anti-PD-1 antibody combined with the compound, compared to the antibody alone or the vehicle (MC38; [1]): statistically significant increase | Tumor size (LL/2): 837.75 ± 117.58 | TGI(%) (LL/2): 62% | anti-tumor potency of anti-PD-1 antibody combined with the compound, compared to the antibody alone or the vehicle (LL/2): statistically significant increase | Tumor size (Renca): 1101.99 ± 92.71 | TGI(%) (Renca): 49% | anti-tumor potency of anti-PD-1 antibody combined with the compound, compared to the antibody alone (Renca): statistically significant increase | TGI(%) (A20): 45% | Tumor size (Mean ± SEM) (A20): 1446.75 ± 149.90 mm^3 | anti-tumor potency of the compound combined with anti-PD-1 antibody, compared to being used alone (A20; A20 syngeneic lymphoma tumor model): statistically significant increase | Tumor size (Hepa1-6): 1018.26 ± 232.72 | TGI(%) (Hepa1-6): 37% | TGI(%) (Pan02): 66% | Tumor size (Mean ± SEM) (Pan02): 308.02 ± 177.67 mm^3 | anti-tumor potency of anti-PD-1 antibody combined with the compound, compared to the antibody alone (Pan02): statistically significant increase
